From patent US8575357B2, “Substituted (thiazolyl-carbonyl)imidazolidinones and use thereof” (AiCuris GmbH & Co. KG, priority 2009, dated 2013) come the findings set out here.

In general, EC50 refers to the midpoint of the concentration-response curve.

What all share (assay type): cell-based
One test concerns HIV-1LAI. Put plainly: H9 assay with wild-type HIV-1 (HIV-1LAI supernatant infection, AlamarBlue). As to conditions: Human immunodeficiency virus 1, 120 h, H9 cells, 10% FCS, 5 days. The protocol: For the mixture for a 96-well MTP, 3 million PBLs are pelleted, suspended in 1 ml of RPMI 1640 medium/10% FCS and incubated together with a suitable amount of HIV-1LAI (NIH AIDS Research & Reference Reagent Program, Germantown, USA) at 37° C. for 2 hours (pellet infection). Unadsorbed viruses are subsequently washed out with PBS, and the infected cells are pelleted again and suspended in 18 ml of RPMI 1640 medium/10% FCS/interleukin-2 (40 U/ml). 180 μl thereof are pipetted into each well of a white 96-well MTP with 20 μl of test substance in suitable dilution. Alternatively, after preparation of the substance dilutions in the MTP, the HIV is pipetted in together with the cells and is not washed out again (supernatant infection). In order to avoid edge effects, the wells at the edge of the MTP are not used for substance dilutions. The second vertical row of the MTP contains only infected cells (virus control) and the eleventh vertical row only uninfected cells (cell control), in each case in RPMI 1640 medium/10% FCS/interleukin-2 (40 U/ml). The other wells of the MTP contain the compounds of the invention in various concentrations starting from the third vertical row, from which the test substances are diluted in 3-fold steps up to the tenth vertical row 3^7-fold. The test substances are dissolved in DMSO, whereby the final DMSO concentration in the test mixture is 1%. The test mixtures are incubated at 37° C./5% CO2. After 5 and 7 days, 50 μl of cell-free supernatant are removed from each well to determine the amount of p24 present by means of a p24 ELISA (HIV-1 p24^CA Antigen Capture Assay Kit, NCI-Frederick Cancer Research and Development Center, Frederick, USA). From the resulting values of the photometric evaluation (450/620 nm) the EC50 values of the test substances are determined as the concentration at which the amount of p24 is 50% of the untreated infected cells.
Alternatively, H9 cells (ATCC, Wesel, Germany) are employed instead of PBLs for testing the test substances. H9 cells are incubated in RPMI 1640 medium with 2% or 10% FCS as a HIV-1LAI supernatant infection at 37° C./5% CO2, (20 μl of substance dilution and 80 μl of cells/virus per well) in accordance with the pattern described above for 5 days. Subsequently, 10 μl of AlamarBlue (Invitrogen, Karlsruhe, Germany) are added to each well, and the MTPs are incubated at 37° C. for 3 hours before the fluorimetric evaluation takes place (544/590 nm). The resulting values are about 40 000 for the untreated uninfected cells and about 7000 for the untreated infected cells. In the low concentration range, the EC50 values of the test substances are determined as the concentration at which the fluorescence is 50% of the untreated uninfected cells (in each case subtracting the values of the untreated infected cells). In addition, in the high concentration range, the CC50 values of the test substances are determined as the concentration at which the fluorescence is 50% of the untreated uninfected cells (in each case subtracting the values of the untreated infected cells).
In general terms: Alamar Blue is a resazurin reagent that responds to reducing activity.

The test system of test [1] is HIV-1NL4-3 reporter virus, reverse transcriptase mutations K103N-Y181C. Description: Light assay with inhibitor-resistant HI reporter virus in MT4 7F2 cells. As to conditions: Human immunodeficiency virus 1, 120 h, read-out: EC50 (nM) MT4 7F2 cells HIV-1NL4-M3 K103N-Y181C 2% FCS. As for the experimental part:
(§1) For the mixture for a 96-well MTP, 3 million MT4 7F2 cells are pelleted, suspended in 1 ml of RPMI 1640 medium without phenol red (Invitrogen, Karlsruhe, Germany)/10% FCS/10% AIM-V (Invitrogen, Karlsruhe, Germany) and incubated together with a suitable amount of the corresponding HIV-1NL4-3 reporter virus at 37° C. for 2 hours (pellet infection). Unadsorbed viruses are subsequently washed out with PBS, and the infected cells are pelleted again and suspended in 8 ml of RPMI 1640 medium without phenol red/2% or 10% FCS/10% AIM-V. 80 μl thereof are pipetted into each well of a white 96-well MTP with 20 μl of test substance in suitable dilution. To avoid edge effects, the wells on the edge of the MTP are not used for substance dilutions. The second vertical row of the MTP contains only infected cells (virus control) and the eleventh vertical row only uninfected cells (cell control), in each case in RPMI 1640 medium without phenol red/2% or 10% FCS/10% AIM-V. The other wells of the MTP contain the compounds of the invention in various concentrations starting from the third vertical row, from which the test substances are diluted in 3-fold steps up to the tenth vertical row 3^7-fold. The test substances are dissolved in DMSO, whereby the final DMSO concentration in the test mixture is 1%. The test mixtures are incubated at 37° C./5% CO2 for five days and, after the addition of 15 μl of Lu164 substrate (5 mg/ml coelenterazine dissolved in 30 μM glutathione/DMSO, 100 mM NaCl, 1M MES, 100 mM glutathione), evaluated by luminometry. The resulting values are in the region of 1 000 000 RLUs (relative light units) for the virus control and 300 to 400 RLUs for the cell control. The EC50 values of the test substances are determined as the concentration at which the virus replication measured in RLUs is 50% of the untreated infected cells.

The test system of test [2] is HIV-1NL4-3 reporter virus, wild-type. Description: Light assay with wild-type HI reporter virus in MT4 7F2 cells. As to conditions: Human immunodeficiency virus 1, 120 h, read-out: EC50 (nM) MT4 7F2 cells HIV-1NL4-M3 wt 2% FCS. The protocol:
as §1

As to `N#Cc1cccc(-c2sc(C(=O)N3CNC(=O)C3)nc2-c2ccc(F)c(Cl)c2)c1` [Example 10], the EC50 in the test with HIV-1LAI was determined as 5 nM; in test [1] it was 70 nM; in test [2], 4 nM.
For `O=C1CN(C(=O)c2nc(-c3cc(F)cc(Cl)c3)c(-c3cccc(Cl)c3)s2)CN1` [Example 6, 1-{[4-(3-Chloro-5-fluorophenyl)-5-(3-chlorophenyl)-1,3-thiazole-2-yl]carbonyl}imidazolidin-4-one], in that order: 95 nM, 282 nM and 58 nM.
As for `N#Cc1cc(F)cc(-c2sc(C(=O)N3CNC(=O)C3)nc2-c2ccc(F)c(C#N)c2)c1` [Example 15, 5-{5-(3-Cyano-5-fluorophenyl)-2-[(4-oxoimidazolidin-1-yl)carbonyl]-1,3-thiazole-4-yl}-2-fluorobenzenecarbonitrile], the EC50 in the test on HIV-1LAI worked out at 2 nM; in test [1], 87 nM; in test [2], 9 nM.
`N#Cc1cccc(-c2nc(C(=O)N3CNC(=O)C3)sc2-c2cccc(Cl)c2)c1` [Example 17]: the values for the EC50 (in the test with HIV-1LAI; in test [1]; in test [2]) were 2 nM, 64 nM and 0.5 nM, respectively.
Consider `N#Cc1cc(-c2sc(C(=O)N3CNC(=O)C3)nc2-c2ccc(F)c(Cl)c2)ccc1F` [Example 9, 5-{4-(3-Chloro-4-fluorophenyl)-2-[(4-oxoimidazolidin-1-yl)carbonyl]-1,3-thiazole-5-yl}-2-fluorobenzenecarbonitrile], for which the EC50 in the test with HIV-1LAI was found to be 40 nM; in test [1], 118 nM; in test [2], 35 nM.
Turning to `N#Cc1cc(F)cc(-c2nc(C(=O)N3CNC(=O)C3)sc2-c2cc(F)cc(Cl)c2)c1` [Example 12, 3-{5-(3-Chloro-5-fluorophenyl)-2-[(4-oxoimidazolidin-1-yl)carbonyl]-1,3-thiazole-4-yl}fluorobenzenecarbonitrile], the EC50 was 80 nM with HIV-1LAI, 119 nM in test [1] and 29 nM in test [2].
Consider `N#Cc1cc(-c2nc(C(=O)N3CNC(=O)C3)sc2-c2cc(F)cc(Cl)c2)ccc1F` [Example 13, 5-{5-(3-Chloro-5-fluorophenyl)-2-[(4-oxoimidazolidin-1-yl)carbonyl]-1,3-thiazole-4-yl}-2-fluorobenzenecarbonitrile], for which the values for the EC50 (in the test on HIV-1LAI; in test [1]; in test [2]) were 2 nM, 43 nM and 0.6 nM, respectively.
`N#Cc1cccc(-c2sc(C(=O)N3CNC(=O)C3)nc2-c2ccc(F)c(C#N)c2)c1` [Example 16, 5-{5-(3-Cyanophenyl)-2-[(4-oxoimidazolidin-1-yl)carbonyl]-1,3-thiazole-4-yl}-2-fluorobenzenecarbonitrile]: the EC50 amounted to 2 nM in the test with HIV-1LAI, 123 nM in test [1] and 15 nM in test [2].
Consider `N#Cc1cccc(-c2nc(C(=O)N3CNC(=O)C3)sc2-c2cc(F)cc(Cl)c2)c1` [Example 18, 3-{5-(3-Chloro-5-fluorophenyl)-2-[(4-oxoimidazolidin-1-yl)carbonyl]-1,3-thiazole-4-yl}benzenecarbonitrile], for which the EC50 was determined as 1 nM with HIV-1LAI, 38 nM in test [1] and 0.4 nM in test [2].
The corresponding values for `N#Cc1cc(F)cc(-c2sc(C(=O)N3CNC(=O)C3)nc2-c2cccc(Cl)c2)c1` [Example 21, 3-{4-(3-Chlorophenyl)-2-[(4-oxoimidazolidin-1-yl)carbonyl]-1,3-thiazole-5-yl}-5-fluorobenzenecarbonitrile] are 2 nM, 79 nM and 2 nM.
For `N#Cc1cccc(-c2nc(C(=O)N3CNC(=O)C3)sc2-c2cccc(C#N)c2)c1` [Example 19, 3,3′-{2-[(4-Oxoimidazolidin-1-yl)carbonyl]-1,3-thiazole-4,5-diyl}benzenecarbonitrile], in that order: 1 nM, 94 nM and 2 nM.
For the compound `N#Cc1cccc(-c2sc(C(=O)N3CNC(=O)C3)nc2-c2cccc(Cl)c2)c1` [Example 7, 3-{4-(3-Chlorophenyl)-2-[(4-oxoimidazolidin-1-yl)carbonyl]-1,3-thiazole-5-yl}benzenecarbonitrile], the EC50 in the test with HIV-1LAI amounted to 20 nM; in test [1] it was 303 nM; in test [2], 36 nM.
For `N#Cc1cc(-c2sc(C(=O)N3CNC(=O)C3)nc2-c2cccc(Cl)c2)ccc1F` [Example 5, 5-{4-(3-Chlorophenyl)-2-[(4-oxoimidazolidin-1-yl)carbonyl]-1,3-thiazole-5-yl}-2-fluorobenzenecarbonitrile], in that order: 80 nM, 228 nM and 38 nM.
For the compound `N#Cc1cc(-c2nc(C(=O)N3CNC(=O)C3)sc2-c2cccc(Cl)c2)ccc1F` [Example 14, 5-{5-(3-Chlorophenyl)-2-[(4-oxoimidazolidin-1-yl)carbonyl]-1,3-thiazole-4-yl}-2-fluorobenzenecarbonitrile], the EC50 in the test on HIV-1LAI came to 4 nM; in test [1], 49 nM; in test [2] it was 1 nM.
Regarding `O=C1CN(C(=O)c2nc(-c3cccc(Cl)c3)c(-c3cccc(C(F)(F)F)c3)s2)CN1` [Example 8, 1-({4-(3-Chlorophenyl)-5-[3-(trifluoromethyl)phenyl]-1,3-thiazole-2-yl}carbonyl)imidazolidin-4-one], the EC50 in test [1] turned out to be 142 nM; in test [2], 46 nM.
On to `O=C1CN(C(=O)c2nc(-c3cccc(Cl)c3)c(-c3ccc(F)c(Cl)c3)s2)CN1` [Example 4, 1-{[5-(3-Chloro-4-fluorophenyl)-4-(3-chlorophenyl)-1,3-thiazole-2-yl]carbonyl}imidazolidin-4-one], for which the EC50 in the test with HIV-1LAI came to 80 nM; in test [1], 143 nM; in test [2], 10 nM.
